From PubChem BioAssay AID248 (DTP/NCI, 2004) come the findings set out here.

Values joined by “and” are separate entries in the source; they are usually repeats but may differ in a detail not shown here. Equal entries are not always repeated. Toxic doses and inconclusive results are not listed.

In this assay the test system is L1210 leukemia ip in BDF1 mice, survival T/C. Description: NCI In Vivo Anticancer Drug Screen. Data for tumor model L1210 Leukemia (intraperitoneal) in B6D2F1 (BDF1) mice. The settings on record: endpoint: mean survival time, higher = longer survival. The gist of the method: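 Transplanted-tumor mice were given test agent; controls received vehicle only. Survival readings from the two groups were divided (treated over control).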

[1] abbreviates: dose: 100.0 mg/kg/injection, schedule: Q01DX009 (ip), vehicle: Klucel (hydroxypropylcellulose) (HPC).
The mark [2] stands for this setting: dose: 100.0 mg/kg/injection, schedule: Q04DX003 (ip), vehicle: Klucel (hydroxypropylcellulose) (HPC).
Setting [3] is: dose: 200.0 mg/kg/injection, schedule: Q01DX009 (ip), vehicle: Klucel (hydroxypropylcellulose) (HPC).
[4] abbreviates: dose: 200.0 mg/kg/injection, schedule: Q04DX003 (ip), vehicle: Klucel (hydroxypropylcellulose) (HPC).
Where [5] appears, read: dose: 400.0 mg/kg/injection, schedule: Q01DX009 (ip), vehicle: Klucel (hydroxypropylcellulose) (HPC).
Where [6] appears, read: dose: 400.0 mg/kg/injection, schedule: Q04DX003 (ip), vehicle: Klucel (hydroxypropylcellulose) (HPC).
Where [7] appears, read: dose: 50.0 mg/kg/injection, schedule: Q01DX001 (ip), vehicle: carboxymethylcellulose (CMC).
The mark [8] stands for this setting: dose: 100.0 mg/kg/injection, schedule: Q01DX001 (ip), vehicle: carboxymethylcellulose (CMC).
Setting [9] is: dose: 200.0 mg/kg/injection, schedule: Q01DX001 (ip), vehicle: carboxymethylcellulose (CMC).
[10] abbreviates: dose: 400.0 mg/kg/injection, schedule: Q01DX001 (ip), vehicle: carboxymethylcellulose (CMC).
Setting [11] is: dose: 100.0 mg/kg/injection, schedule: Q01DX009 (ip), vehicle: saline with Tween-80.
[12] abbreviates: dose: 100.0 mg/kg/injection, schedule: Q04DX003 (ip), vehicle: saline with Tween-80.
The mark [13] stands for this setting: dose: 200.0 mg/kg/injection, schedule: Q04DX003 (ip), vehicle: saline with Tween-80.
The mark [14] stands for this setting: dose: 400.0 mg/kg/injection, schedule: Q04DX003 (ip), vehicle: saline with Tween-80.
Setting [15] is: dose: 200.0 mg/kg/injection, schedule: Q01DX009 (ip), vehicle: saline with Tween-80.
Where [16] appears, read: dose: 400.0 mg/kg/injection, schedule: Q01DX009 (ip), vehicle: saline with Tween-80.
[17] abbreviates: dose: 100.0 mg/kg/injection, schedule: Q01DX001 (ip), vehicle: saline with Tween-80.

Turning to `CS(=O)(=O)Nc1ccc(C(=O)O)cc1`, the T/C was 97 % of control under setting [1]; 100 % of control under setting [2]; 98 % of control under setting [3]; 107 % of control under setting [4]; 98 % of control under setting [5]; 105 % of control under setting [6].

`CNCC(N)=O`: the T/C was 108 % of control under setting [7], 105 % of control under setting [8], 98 % of control under setting [9] and 95 % of control under setting [10].

On to `CCOC(=O)c1ccc(N=NN(C)C(C)CC)cc1` (configuration not stated), for which the T/C (dose: 100.0 mg/kg/injection, schedule: Q01DX001 (ip), vehicle: Klucel (hydroxypropylcellulose) (HPC)) was 113 % of control; the T/C under setting [2] was 102 % of control; the T/C (dose: 200.0 mg/kg/injection, schedule: Q01DX001 (ip), vehicle: Klucel (hydroxypropylcellulose) (HPC)) was 101 % of control; the T/C under setting [4] was 118 % of control; the T/C (dose: 400.0 mg/kg/injection, schedule: Q01DX001 (ip), vehicle: Klucel (hydroxypropylcellulose) (HPC)) was 124 % of control; the T/C under setting [5] was 166 % of control. The T/C under setting [6] is 122 % of control.

In the case of `N/N=C/C=N/Nc1cnccn1`, the T/C reads like this: under setting [1], 106 % of control; under setting [3], 86 % of control.

In the case of `C=CCCC1CC(C(C)C)CC2(C1)OCCO2` (configuration not stated), the T/C is, setting by setting: (dose: 50.0 mg/kg/injection, schedule: Q01DX009 (ip), vehicle: saline with Tween-80) 96 % of control; under setting [11], 96 % of control.

For the molecule `CC(=O)Nc1cccc(C(C)=O)c1[N+](=O)[O-]`, the T/C was 100 % of control under setting [12], 94 % of control under setting [13] and 100 % of control under setting [14].

For the molecule `O=C(Cn1ccc(=O)[nH]c1=O)c1cccs1`, the T/C runs as follows: under setting [11], 104 % of control; under setting [12], 98 % of control; under setting [15], 96 % of control; under setting [13], 96 % of control; under setting [16], 96 % of control; under setting [14], 95 % of control.

Regarding `CC1(C(=O)N2c3ccccc3C=CC2C#N)CC2C=CC1C2` (configuration not stated), the T/C by setting is: under setting [2], 106 % of control; under setting [4], 110 % of control; under setting [6], 123 % of control.

Regarding `Cc1cc2c(c(=O)n1C)COC2=O`, the T/C by setting is: (dose: 100.0 mg/kg/injection, schedule: Q04DX003 (ip), vehicle: other) 100 % of control; (dose: 200.0 mg/kg/injection, schedule: Q04DX003 (ip), vehicle: other) 100 % of control; (dose: 400.0 mg/kg/injection, schedule: Q04DX003 (ip), vehicle: other) 98 % of control.

As to `CCCCn1cncc1C`, the T/C was 88 % of control (dose: 1.56 mg/kg/injection, schedule: Q01DX009 (ip), vehicle: saline); 98 % of control (dose: 3.13 mg/kg/injection, schedule: Q01DX009 (ip), vehicle: saline); 98 % of control and 104 % of control (dose: 6.25 mg/kg/injection, schedule: Q01DX009 (ip), vehicle: saline).

Take `O=c1cc(-c2ccccc2)cc(-c2ccccc2)o1`: the T/C is, setting by setting: under setting [1], 102 % of control; under setting [2], 96 % of control; under setting [3], 96 % of control; under setting [4], 100 % of control; under setting [5], 96 % of control; under setting [6], 94 % of control.

Turning to `CCN(CC)CCC(CNc1c(C)cnc2cc(Cl)ccc12)c1ccc(Cl)cc1` (configuration not stated), the T/C was 100 % of control under setting [12], 100 % of control under setting [13] and 94 % of control under setting [14].

Take `c1cc[c]([Hg][S]c2nc3ccccc3s2)cc1`: the T/C reads like this: under setting [7], 96 % of control; under setting [8], 108 % of control.

As to `COc1ccc(C(O)(CNCc2ccccc2)c2ccccc2)cc1` (configuration not stated), the T/C under setting [17] was 97 % of control.

As for `CC1=NN(c2ccccc2)C(=O)C1N=Nc1ccc(S(=O)(=O)Nc2nccc(C)n2)cc1` (configuration not stated), the T/C under setting [8] is 98 % of control, the T/C under setting [9] was 98 % of control and the T/C under setting [10] was 88 % of control.

As for `CCOC(=O)c1c(NC(=O)CCC(=O)Nc2sc(C)c(C)c2C(=O)OCC)sc(C)c1C`, the T/C is 88 % of control (dose: 50.0 mg/kg/injection, schedule: Q04DX003 (ip), vehicle: saline with Tween-80); 90 % of control under setting [1]; 98 % of control under setting [12]; 90 % of control under setting [13]; 88 % of control under setting [5]; 88 % of control under setting [14].

Regarding `O=C(O)C1C2CC(O)C(C2)C1C(=O)O` (configuration not stated), the T/C under setting [17] is 94 % of control; the T/C under setting [11] is 93 % of control; the T/C (dose: 100.0 mg/kg/injection, schedule: Q01DX009 (ip), vehicle: saline) is 105 % of control; the T/C (dose: 100.0 mg/kg/injection, schedule: Q04DX003 (ip), vehicle: saline) was 94 % of control; the T/C (dose: 200.0 mg/kg/injection, schedule: Q01DX001 (ip), vehicle: saline with Tween-80) was 98 % of control; the T/C under setting [15] was 95 % of control. Further, the T/C (dose: 200.0 mg/kg/injection, schedule: Q01DX009 (ip), vehicle: saline) was 105 % of control; the T/C (dose: 200.0 mg/kg/injection, schedule: Q04DX003 (ip), vehicle: saline) is 96 % of control; the T/C (dose: 400.0 mg/kg/injection, schedule: Q01DX001 (ip), vehicle: saline with Tween-80) was 100 % of control; the T/C under setting [16] is 96 % of control; the T/C (dose: 400.0 mg/kg/injection, schedule: Q01DX009 (ip), vehicle: saline) was 98 % of control; the T/C (dose: 400.0 mg/kg/injection, schedule: Q04DX003 (ip), vehicle: saline) was 93 % of control.

As for `O=c1sc(=S)[nH]c2ccccc12`, the T/C runs as follows: under setting [2], 88 % of control; under setting [4], 93 % of control.

For `CCC(C)c1cc([N+](=O)[O-])cc([N+](=O)[O-])c1SC(=O)N(C)C` (configuration not stated), the T/C by setting is: under setting [1], 94 % of control; under setting [3], 97 % of control; under setting [5], 100 % of control.
